22 compounds from patent US20250026778A1 (TIUMBIO CO., LTD., priority 2021, published 2025) can be followed below.

T1 sequence (P17931 whole entry): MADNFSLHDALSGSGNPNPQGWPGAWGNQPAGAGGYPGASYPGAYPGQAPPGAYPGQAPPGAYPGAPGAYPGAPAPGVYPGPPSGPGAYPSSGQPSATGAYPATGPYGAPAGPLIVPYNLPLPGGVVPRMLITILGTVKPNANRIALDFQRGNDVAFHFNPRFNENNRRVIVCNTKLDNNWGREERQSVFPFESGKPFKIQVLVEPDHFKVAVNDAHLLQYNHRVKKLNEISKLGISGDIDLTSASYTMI

The first assay has as its target T1, his-galectin-3 (Homo sapiens, UniProt P17931).
T1 construct: purchased Abcam
The experiment in a line: TR-FRET assay (in vitro galectin-3 binding inhibitory activity test). As to conditions: Table 1; compound at 20 μM; 60 nM his-galectin-3, 15 nM biotin-ASF; read-out: % Inhibitory activity (at 20 μM). The method, boiled down:
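Compound is premixed with his-galectin-3 (60 nM final), then biotin-ASF (15 nM), Tb anti-His antibody (2 nM) and streptavidin-d2 (20 nM) are added. After at least 3.5 hours at RT in HEPES/NaCl buffer with Tween 20 and BSA, TR-FRET is read at 615/665 nm. DMSO serves as the uninhibited control, ASF omission as background.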
Consider `O=C1CCCC2(N1)O[C@H](CO)[C@H](O)[C@H](n1cc(-c3cc(F)c(F)c(F)c3)nn1)[C@H]2OCc1ccccc1` (stereo partly drawn) [Compound A93, (2R,3R,4S,5R)-5-(benzyloxy)-3-hydroxy-2-(hydroxymethyl)-4-(4-(3,4,5-trifluorophenyl)-1H-1,2,3-triazol-1-yl)-1-oxa-7-azaspiro[5.5]undecan-8-one], for which the inhibition at 20 µM was < 25%.

Consider `O=C(CO[C@@H]1[C@@H](n2cc(-c3cc(F)c(F)c(F)c3)nn2)[C@@H](O)[C@@H](CO)O[C@@]12CCCO2)Nc1ccc(Cl)nn1` [Compound A29, N-(6-chloropyridazin-3-yl)-2-(((5S,7R,8R,9S,10R)-8-hydroxy-7-(hydroxymethyl)-9-(4-(3,4,5-trifluorophenyl)-1H-1,2,3-triazol-1-yl)-1,6-dioxaspiro[4.5]decan-10-yl)oxy)acetamide], for which the inhibition at 20 µM is < 25%.

Turning to `COc1cccc(CC(=O)N[C@@H]2CCO[C@]23O[C@H](CO)[C@H](O)[C@H](n2cc(-c4cc(F)c(F)c(F)c4)nn2)[C@H]3O)c1` [Compound A116, N-((4R,5S,7R,8R,9S,10R)-8,10-dihydroxy-7-(hydroxymethyl)-9-(4-(3,4,5-trifluorophenyl)-1H-1,2,3-triazol-1-yl)-1,6-dioxaspiro[4.5]decan-4-yl)-2-(3-methoxyphenyl)acetamide], the inhibition at 20 µM was 50 to 75%.

For the compound `O=C(N[C@@H]1CCO[C@]12O[C@H](CO)[C@H](O)[C@H](n1cc(-c3cc(F)c(F)c(F)c3)nn1)[C@H]2O)C1(c2ccccc2)CC1` [Compound A114, N-((4R,5S,7R,8R,9S,10R)-8,10-dihydroxy-7-(hydroxymethyl)-9-(4-(3,4,5-trifluorophenyl)-1H-1,2,3-triazol-1-yl)-1,6-dioxaspiro[4.5]decan-4-yl)-1-phenylcyclopropanecarboxamide], the inhibition at 20 µM is < 25%.

As for `COc1cccc(CN[C@@H]2CCO[C@]23O[C@H](CO)[C@H](O)[C@H](n2cc(-c4cc(F)c(F)c(F)c4)nn2)[C@H]3O)c1O` [Compound A132, (4R,5S,7R,8R,9S,10R)-4-((2,3-hydroxy-3-methoxybenzyl)amino)-7-(hydroxymethyl)-9-(4-(3,4,5-trifluorophenyl)-1H-1,2,3-triazol-1-yl)-1,6-dioxaspiro[4.5]decane-8,10-diol], the inhibition at 20 µM was 25 to 50%.

Regarding `O=C(N[C@@H]1CCO[C@]12O[C@H](CO)[C@H](O)[C@H](n1cc(-c3cc(F)c(F)c(F)c3)nn1)[C@H]2O)c1cc2ccccc2s1` [Compound A124, N-((4R,5S,7R,8R,9S,10R)-8,10-dihydroxy-7-(hydroxymethyl)-9-(4-(3,4,5-trifluorophenyl)-1H-1,2,3-triazol-1-yl)-1,6-dioxaspiro[4.5]decan-4-yl)benzo[b]thiophene-2-carboxamide], the inhibition at 20 µM lay in the range of 50 to 75%.

Consider `O=C(O[C@@H]1[C@@H](n2cc(-c3cc(F)c(F)c(F)c3)nn2)[C@@H](O)[C@@H](CO)O[C@@]12CCCO2)c1ccncc1` [Compound A80, (5S,7R,8R,9S,10R)-8-hydroxy-7-(hydroxymethyl)-9-(4-(3,4,5-trifluorophenyl)-1H-1,2,3-triazol-1-yl)-1,6-dioxaspiro[4.5]decan-10-yl isonicotinate], for which the inhibition at 20 µM fell in the range of 25 to 50%.

Consider `OC[C@H]1O[C@]2(OCC[C@H]2NCc2ccccc2F)[C@H](O)[C@@H](n2cc(-c3cc(F)c(F)c(F)c3)nn2)[C@H]1O` [Compound A87, (4R,5S,7R,8R,9S,10R)-4-((2-fluorobenzyl)amino)-7-(hydroxymethyl)-9-(4-(3,4,5-trifluorophenyl)-1H-1,2,3-triazol-1-yl)-1,6-dioxaspiro[4.5]decane-8,10-diol], for which the inhibition at 20 µM was 25 to 50%.

Consider `O=P(O)(O)O[C@@H]1[C@@H](n2cc(-c3cc(F)c(F)c(F)c3)nn2)[C@@H](O)[C@@H](CO)O[C@@]12CCCCO2` [Compound A76, (2R,3R,4S,5R,6S)-3-hydroxy-2-(hydroxymethyl)-4-(4-(3,4,5-trifluorophenyl)-1H-1,2,3-triazol-1-yl)-1,7-dioxaspiro[5.5]undecan-5-yl dihydrogen phosphate], for which the inhibition at 20 µM was in the range of 50 to 75%.

With `O=C1CCCC2(O[C@H](CO)[C@H](O)[C@H](n3cc(-c4cc(F)c(F)c(F)c4)nn3)[C@H]2O)N1CC1CCS(=O)(=O)CC1` (stereo partly drawn) [Compound A95, (2R,3R,4S,5R)-7-((1,1-dioxidotetrahydro-2H-thiopyran-4-yl)methyl)-3,5-dihydroxy-2-(hydroxymethyl)-4-(4-(3,4,5-trifluorophenyl)-1H-1,2,3-triazol-1-yl)-1-oxa-7-azaspiro[5.5]undecan-8-one], the inhibition at 20 µM is < 25%.

As for `O=C(O[C@@H]1[C@@H](n2cc(-c3cc(F)c(F)c(F)c3)nn2)[C@@H](O)[C@@H](CO)O[C@@]12CCCO2)c1ccccc1` [Compound A31, (5S,7R,8R,9S,10R)-8-hydroxy-7-(hydroxymethyl)-9-(4-(3,4,5-trifluorophenyl)-1H-1,2,3-triazol-1-yl)-1,6-dioxaspiro[4.5]decan-10-yl benzoate], the inhibition at 20 µM was in the range of 25 to 50%.

On to `O=C(O[C@@H]1[C@@H](n2cc(-c3cc(F)c(F)c(F)c3)nn2)[C@@H](O)[C@@H](CO)O[C@@]12CCCO2)c1cccc(F)c1` [Compound A39, (5S,7R,8R,9S,10R)-8-hydroxy-7-(hydroxymethyl)-9-(4-(3,4,5-trifluorophenyl)-1H-1,2,3-triazol-1-yl)-1,6-dioxaspiro[4.5]decan-10-yl 3-fluorobenzoate], for which the inhibition at 20 µM lay in the range of 50 to 75%.

The same assay, now with this note: Table 2; compound at 20 μM; 60 nM his-galectin-3, 15 nM biotin-ASF.
Consider `CC(C(=O)N[C@@H]1CCO[C@]12O[C@H](CO)[C@H](O)[C@H](n1cc(-c3cc(F)c(F)c(F)c3)nn1)[C@H]2O)c1cccc(Cl)c1` (single isomer, unassigned) [Compound A168], for which the “% Inhibitory activity (at 20 μM)” value is “B (inhibition rate was 50%0 to 7500 (exclusive of 75%))”.

As to `CC(C(=O)N[C@@H]1CCO[C@]12O[C@H](CO)[C@H](O)[C@H](n1cc(-c3cc(F)c(F)c(F)c3)nn1)[C@H]2O)c1cccc(Cl)c1` (single isomer, unassigned) [Compound A167], the “% Inhibitory activity (at 20 μM)” value is recorded as “C (inhibition rate was 25%˜ to 50%˜ (exclusive of 50%))”.

Staying with this assay, now noted: Table 2; compound at 20 μM; 60 nM his-galectin-3, 15 nM biotin-ASF; read-out: % Inhibitory activity (at 20 μM).
Turning to `O=C(N[C@@H]1CCO[C@]12O[C@H](CO)[C@H](O)[C@H](n1cc(-c3cc(F)c(F)c(F)c3)nn1)[C@H]2O)c1cccc2ncccc12` [Compound A212, N-((4R,5S,7R,8R,9S,10R)-8,10-dihydroxy-7-(hydroxymethyl)-9-(4-(3,4,5-trifluorophenyl)-1H-1,2,3-triazol-1-yl)-1,6-dioxaspiro[4.5]decan-4-yl)quinoline-5-carboxamide], the inhibition at 20 µM was > 75%.

As for `O=C(c1ccc(Cl)cc1)N1CCC[C@]2(C1)O[C@H](CO)[C@H](O)[C@H](n1cc(-c3cc(F)c(F)c(F)c3)nn1)[C@H]2O` [Compound A227, (4-chlorophenyl)((2R,3R,4S,5R,6R)-3,5-dihydroxy-2-(hydroxymethyl)-4-(4-(3,4,5-trifluorophenyl)-1H-1,2,3-triazol-1-yl)-1-oxa-8-azaspiro[5.5]undecan-8-yl)methanone], the inhibition at 20 µM is < 25%.

With `O=C(N[C@@H]1CCO[C@]12O[C@H](CO)[C@H](O)[C@H](n1cc(-c3cc(F)c(F)c(F)c3)nn1)[C@H]2O)c1cccc(-c2cccc(Cl)c2)c1` [Compound A166, 3′-chloro-N-((4R,5S,7R,8R,9S,10R)-8,10-dihydroxy-7-(hydroxymethyl)-9-(4-(3,4,5-trifluorophenyl)-1H-1,2,3-triazol-1-yl)-1,6-dioxaspiro[4.5]decan-4-yl)-[1.1′-biphenyl]-3-carboxamide], the inhibition at 20 µM is 50 to 75%.

Take `O=C(N[C@@H]1CCO[C@]12O[C@H](CO)[C@H](O)[C@H](n1cc(-c3cc(F)c(F)c(F)c3)nn1)[C@H]2O)c1ccnc2ccc(Br)cc12` [Compound A209, 6-bromo-N-((4R,5S,7R,8R,9S,10R)-8,10-dihydroxy-7-(hydroxymethyl)-9-(4-(3,4,5-trifluorophenyl)-1H-1,2,3-triazol-1-yl)-1,6-dioxaspiro[4.5]decan-4-yl)quinoline-4-carboxamide]: the inhibition at 20 µM is > 75%.

With `O=C(c1ccccn1)N1CCC[C@]2(C1)O[C@H](CO)[C@H](O)[C@H](n1cc(-c3cc(F)c(F)c(F)c3)nn1)[C@H]2O` [Compound A188, ((2R,3R,4S,5R,6R)-3,5-dihydroxy-2-(hydroxymethyl)-4-(4-(3,4,5-trifluorophenyl)-1H-1,2,3-triazol-1-yl)-1-oxa-8-azaspiro[5.5]undecan-8-yl)(pyridin-2-yl)methanone], the inhibition at 20 µM was < 25%.

`OC[C@H]1O[C@@]2(CCCN(c3cccs3)C2)[C@H](O)[C@@H](n2cc(-c3cc(F)c(F)c(F)c3)nn2)[C@H]1O` [Compound A225, (2R,3R,4S,5R,6R)-2-(hydroxymethyl)-8-(thiophen-2-yl)-4-(4-(3,4,5-trifluorophenyl)-1H-1,2,3-triazol-1-yl)-1-oxa-8-azaspiro[5.5]undecane-3,5-diol]: the inhibition at 20 µM is < 25%.

Still in this assay, the particulars now being: read-out: % Inhibitory activity (at 20 μM), Table 1; compound at 20 μM; 60 nM his-galectin-3, 15 nM biotin-ASF.
Turning to `O=C(O[C@H]1[C@@H](n2cc(-c3cc(F)c(F)c(F)c3)nn2)[C@@H](O)[C@@H](CO)O[C@@]12CCCO2)c1ccccc1` [Compound A42, (5S,7R,8R,9S,10S)-8-hydroxy-7-(hydroxymethyl)-9-(4-(3,4,5-trifluorophenyl)-1H-1,2,3-triazol-1-yl)-1,6-dioxaspiro[4.5]decan-10-yl benzoate], the inhibition at 20 µM is < 25%.

Staying with this assay, now noted: read-out: % Inhibitory activity (at 20 μM), Table 2; compound at 20 μM; 60 nM his-galectin-3, 15 nM biotin-ASF.
Regarding `OC[C@H]1O[C@]2(OCC[C@H]2n2cc(-c3ccccc3Cl)nn2)[C@H](O)[C@@H](n2cc(-c3cc(F)c(F)c(F)c3)nn2)[C@H]1O` [Compound A204, (4R,5S,7R,8R,9S,10R)-4-(4-(2-chlorophenyl)-1H-1,2,3-triazol-1-yl)-7-(hydroxymethyl)-9-(4-(3,4,5-trifluorophenyl)-1H-1,2,3-triazol-1-yl)-1,6-dioxaspiro[4.5]decane-8,10-diol], the inhibition at 20 µM is < 25%.
